From patent US8202868B2, “4-piperazinyl-pyrimidine compounds suitable for treating disorders that respond to modulation of the dopamine D3 receptor” (Abbott GmbH & Co. KG, priority 2004, dated 2012)

Tests used:
[1] = target: T1, human dopamine D3 receptors (Homo sapiens, UniProt P35462); assay: Dopamine D3 receptor binding, [125I]-iodosulpride displacement; conditions: for Ki: membranes of HEK-293 cells, 0.1 nM [125I]-iodosulpride, 25° C., 60 minutes; for Ki(D2)/Ki(D3): selectivity ratio of receptor binding constants
T1 construct: expressed in transfected cells; host or cells: HEK-293
T1 sequence (P35462 whole entry): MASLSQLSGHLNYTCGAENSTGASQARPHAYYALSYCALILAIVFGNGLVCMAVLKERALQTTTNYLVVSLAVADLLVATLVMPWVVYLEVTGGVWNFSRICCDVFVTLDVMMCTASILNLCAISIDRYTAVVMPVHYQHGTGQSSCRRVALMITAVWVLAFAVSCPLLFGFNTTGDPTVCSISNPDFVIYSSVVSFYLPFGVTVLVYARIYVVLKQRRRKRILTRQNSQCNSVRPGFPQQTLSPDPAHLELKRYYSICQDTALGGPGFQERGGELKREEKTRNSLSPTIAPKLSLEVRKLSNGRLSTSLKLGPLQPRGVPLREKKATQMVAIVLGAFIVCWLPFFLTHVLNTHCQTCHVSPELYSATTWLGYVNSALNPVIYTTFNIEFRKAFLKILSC
Protocol: (§1) The substance to be tested was either dissolved in methanol/Chremophor® (BASF-AG) or in dimethyl sulfoxide and then diluted with water to the desired concentration.
(§2) Each assay mixture was run in triplicate.
The incubation buffer contained 50 mM tris, 120 mM NaCl, 5 mM KCl, 2 mM CaCl2, 2 mM MgCl2 and 0.1% bovine serum albumin, 10 μM quinolone and 0.1% ascorbic acid (prepared fresh daily). The buffer was adjusted to pH 7.4 with HCl.
(§3) After having been incubated at 25° C. for 60 minutes, the assay mixtures were filtered through a Whatman GF/B glass fiber filter under vacuum using a cell collecting device. The filters were transferred to scintillation viols using a filter transfer system. After 4 ml of Ultima Gold® (Packard) have been added, the samples were shaken for one hour and the radioactivity was then counted in a Beta-Counter (Packard, Tricarb 2000 or 2200CA). The cpm values were converted into dpm using a standard quench series and the program belonging to the instrument.
(§4) The inhibition curves were analyzed by means of iterative nonlinear regression analysis using the Statistical Analysis System (SAS) which is similar to the “LIGAND” program described by Munson and Rodbard.

[2] = target: T2, human dopamine D2L receptors (long isoform) (Homo sapiens, UniProt P14416); assay: Dopamine D2L receptor binding, [125I] iodospiperone displacement; conditions: membranes of HEK-293 cells, 0.01 nM [125I] iodospiperone, 25° C., 60 minutes; read-out: Ki(D2)
T2 construct: expressed in transfected cells; host or cells: HEK-293
T2 sequence (P14416 whole entry, canonical isoform): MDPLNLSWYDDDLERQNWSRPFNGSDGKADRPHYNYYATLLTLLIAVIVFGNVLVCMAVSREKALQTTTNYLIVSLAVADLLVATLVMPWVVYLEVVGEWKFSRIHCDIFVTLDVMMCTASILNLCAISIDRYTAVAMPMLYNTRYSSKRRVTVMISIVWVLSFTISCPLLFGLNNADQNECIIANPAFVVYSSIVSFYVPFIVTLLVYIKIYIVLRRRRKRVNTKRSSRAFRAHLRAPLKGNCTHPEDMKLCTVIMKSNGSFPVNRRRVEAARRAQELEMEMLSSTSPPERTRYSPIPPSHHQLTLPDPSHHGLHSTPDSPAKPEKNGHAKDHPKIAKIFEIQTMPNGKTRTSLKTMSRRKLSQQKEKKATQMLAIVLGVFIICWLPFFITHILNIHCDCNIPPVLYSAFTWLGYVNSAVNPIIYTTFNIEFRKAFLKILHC
Protocol: as §1, §2
The incubation buffer contained 50 mM tris, 120 mM NaCl, 5 mM KCl, 2 mM CaCl2, 2 mM MgCl2 and 0.1% bovine serum albumin. The buffer was adjusted to pH 7.4 with HCl.
as §3, §4

SMILES	Ki [1] [nM]	Ki(D2)/Ki(D3) [1]	Ki [2] [nM]
Cc1nnc(SCCCN2CCN(c3cc(C4CCC4)nc(C(C)(C)C)n3)CC2)n1C.O=C(O)/C=C/C(=O)O [Example 43, 2-tert-Butyl-4-{4-[3-(4-methyl-5-methyl-4H-[1,2,4]triazol-3-ylsulfanyl)-propyl]-piperazin-1-yl}-6-cyclobutyl-pyrimidine fumarate]	1.5	210	305
CC(C)(C)c1nc(C2CCC2)cc(N2CCN(CCCOc3ncccn3)CC2)n1.Cl [Example 27, 2-tert-Butyl-4-cyclobutyl-6-{4-[3-(pyrimidin-2-yloxy)-propyl]-piperazin-1-yl}-pyrimidine hydrochloride]	2.1	107	222
Cn1cnnc1SCCCN1CCN(c2cc(C(F)(F)F)nc(C3(C)CC3)n2)CC1 [Example 65, 2-(1-Methyl-cyclopropyl)-4-{4-[3-(4-methyl-4H-[1,2,4]triazol-3-ylsulfanyl)-propyl]-piperazin-1-yl}-6-trifluoromethyl-pyrimidine]	22.1	36	797
CC(C)(C)c1nc(C2CCC2)cc(N2CCN(CCCSc3ncccn3)CC2)n1.Cl [Example 4, 2-tert-Butyl-4-cyclobutyl-6-{4-[3-(pyrimidin-2-ylsulfanyl)-propyl]-piperazin-1-yl}-pyrimidine hydrochloride]	0.9	127	113
Cc1nnc(SCCCN2CCN(c3cc(C4CCC4)nc(C(C)(C)C)n3)CC2)s1.Cl [Example 2, 2-tert-Butyl-4-cyclobutyl-6-{4-[3-(5-methyl-[1,3,4]thiadiazol-2-ylsulfanyl)-propyl]-piperazin-1-yl}-pyrimidine hydrochloride]	1.4	96	135

Other lines, results leading:

Ki [1] [nM]	Ki(D2)/Ki(D3) [1]	Ki [2] [nM]	SMILES
3.8	78	296	C[C@@H](COc1ncccn1)CN1CCN(c2cc(C3CCC3)nc(C(C)(C)C)n2)CC1.Cl [Example 28, (R)-2-tert-Butyl-4-cyclobutyl-6-{4-[2-methyl-3-(pyrimidin-2-yloxy)-propyl]-piperazin-1-yl}-pyrimidine hydrochloride]
1.2	234	272	Cc1nnc(SCCCN2CCN(c3cc(C4CC4)nc(C(C)(C)C)n3)CC2)n1C.Cl [Example 45, 2-tert-Butyl-4-{4-[3-(4-methyl-5-methyl-4H-[1,2,4]triazol-3-ylsulfanyl)-propyl]-piperazin-1-yl}-6-cyclopropyl-pyrimidine hydrochloride]
2	72	143	C[C@@H](COc1ccnc(O)n1)CN1CCN(c2cc(C3CCC3)nc(C(C)(C)C)n2)CC1 [Example 31, (R)-4-{3-[4-(2-tert-Butyl-6-cyclobutyl-pyrimidin-4-yl)-piperazin-1-yl]-2-methyl-propoxy}-pyrimidin-2-ol]
2	203	405	Cn1c(SCCCN2CCN(c3cc(C4CCC4)nc(C(C)(C)C)n3)CC2)nnc1C(F)(F)F [Example 42, 2-tert-Butyl-4-{4-[3-(4-methyl-5-trifluoromethyl-4H-[1,2,4]triazol-3-ylsulfanyl)-propyl]-piperazin-1-yl}-6-cyclobutyl-pyrimidine]
